Assay results taken from patent US8445501B2, “Substituted 7-carboxamido-pyrrolo[3,2-d]pyrimidines” (Takeda GmbH, priority 2008, dated 2013).

The compounds below were run against T1, human PDE5 (Homo sapiens, UniProt O76074) (assay: Inhibition of the type 5 phosphodiesterase (PDE5) activity, modified SPA test with platelet lysate). Settings: PDE5 from human platelet lysate, 0.5 μM cGMP.
T1 construct: from tissue; host or cells: platelets from fresh blood of human donors (lysate, 10,000 g supernatant)
Format: biochemical
Outline: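 Human platelet lysate (10,000 g supernatant) as PDE5 source in SPA with 0.5 μM cGMP plus [3H]cGMP tracer, pH 7.4, 5 mM Mg2+, 1 μM motapizone and 10 nM PDE2 inhibitor; 10–20% conversion. 5 min preincubation, 15 min at 37 °C, stopped with SPA beads/IBMX. IC50 by non-linear regression.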

Row | SMILES | IC50 [nM]
1 | COc1ccc(OCC2CC2)c(-c2ncnc3c(C(=O)NC4CCN(C(=O)CO)CC4)c[nH]c23)c1 [Example 211, 4-(2-Cyclopropylmethoxy-5-methoxy-phenyl)-5H-pyrrolo[3,2-d]pyrimidine-7-carboxylic acid [1-(2-hydroxy-acetyl)piperidin-4-yl]-amide] | 2.34
2 | COc1ccc(OCC2CC2)c(-c2ncnc3c(C(=O)NC4CCN(C(=O)[C@H](C)O)CC4)c[nH]c23)c1 [Example 212, 4-(2-Cyclopropylmethoxy-5-methoxy-phenyl)-5H-pyrrolo[3,2-d]pyrimidine-7-carboxylic acid [1-((S)-2-hydroxy-propionyl)piperidin-4-yl]-amide] | 1.07
3 | COc1ccc(OCC2CC2)c(-c2ncnc3c(C(=O)NC4CCN(C(=O)C5(O)CC5)CC4)c[nH]c23)c1 [Example 213, 4-(2-Cyclopropylmethoxy-5-methoxy-phenyl)-5H-pyrrolo[3,2-d]pyrimidine-7-carboxylic acid [1-(1-hydroxy-cyclopropanecarbonyl)-piperidin-4-yl]-amide] | 0.55
4 | O=C(CO)N[C@H]1CC[C@@H](NC(=O)c2c[nH]c3c(-c4ccc(F)cc4OCC4CC4)ncnc23)CC1 [Example 214, cis-4-(2-Cyclopropylmethoxy-4-fluoro-phenyl)-5H-pyrrolo[3,2-d]pyrimidine-7-carboxylic acid [4-(2-hydroxy-acetylamino)-cyclohexyl]-amide] | 2.63
5 | C[C@H](O)C(=O)N[C@H]1CC[C@@H](NC(=O)c2c[nH]c3c(-c4ccc(F)cc4OCC4CC4)ncnc23)CC1 [Example 215, cis-4-(2-Cyclopropylmethoxy-4-fluoro-phenyl)-5H-pyrrolo[3,2-d]pyrimidine-7-carboxylic acid [4-((S)-2-hydroxy-propionylamino)-cyclohexyl]-amide] | 2.57
6 | O=C(N[C@H]1CC[C@@H](NC(=O)C2(O)CC2)CC1)c1c[nH]c2c(-c3ccc(F)cc3OCC3CC3)ncnc12 [Example 216, cis-4-(2-Cyclopropylmethoxy-4-fluoro-phenyl)-5H-pyrrolo[3,2-d]pyrimidine-7-carboxylic acid {4-[(1-hydroxy-cyclopropanecarbonyl)-amino]-cyclohexyl}-amide] | 1.51
7 | O=C(CO)N[C@H]1CC[C@H](NC(=O)c2c[nH]c3c(-c4ccc(F)cc4OCC4CC4)ncnc23)CC1 [Example 217, trans-4-(2-Cyclopropylmethoxy-4-fluoro-phenyl)-5H-pyrrolo[3,2-d]pyrimidine-7-carboxylic acid [4-(2-hydroxy-acetylamino)-cyclohexyl]-amide] | 2.24
8 | C[C@H](O)C(=O)N[C@H]1CC[C@H](NC(=O)c2c[nH]c3c(-c4ccc(F)cc4OCC4CC4)ncnc23)CC1 [Example 218, trans-4-(2-Cyclopropylmethoxy-4-fluoro-phenyl)-5H-pyrrolo[3,2-d]pyrimidine-7-carboxylic acid [4-((S)-2-hydroxy-propionylamino)-cyclohexyl]-amide] | 2.51
9 | O=C(N[C@H]1CC[C@H](NC(=O)C2(O)CC2)CC1)c1c[nH]c2c(-c3ccc(F)cc3OCC3CC3)ncnc12 [Example 219, trans-4-(2-Cyclopropylmethoxy-4-fluoro-phenyl)-5H-pyrrolo[3,2-d]pyrimidine-7-carboxylic acid {4-[(1-hydroxy-cyclopropanecarbonyl)-amino]-cyclohexyl}-amide] | 2
10 | O=C(NC1CCN(C(=O)CO)CC1)c1c[nH]c2c(-c3cc(F)ccc3OCC3CC3)ncnc12 [Example 220, 4-(2-Cyclopropylmethoxy-5-fluoro-phenyl)-5H-pyrrolo[3,2-d]pyrimidine-7-carboxylic acid [1-(2-hydroxy-acetyl)piperidin-4-yl]-amide] | 7.41
11 | C[C@H](O)C(=O)N1CCC(NC(=O)c2c[nH]c3c(-c4cc(F)ccc4OCC4CC4)ncnc23)CC1 [Example 221, 4-(2-Cyclopropylmethoxy-5-fluoro-phenyl)-5H-pyrrolo[3,2-d]pyrimidine-7-carboxylic acid [1-((S)-2-hydroxy-propionyl)piperidin-4-yl]-amide] | 6.46
12 | O=C(CO)N[C@H]1CC[C@H](NC(=O)c2c[nH]c3c(-c4cc(F)ccc4OCC4CC4)ncnc23)CC1 [Example 222, trans-4-(2-Cyclopropylmethoxy-5-fluoro-phenyl)-5H-pyrrolo[3,2-d]pyrimidine-7-carboxylic acid [4-(2-hydroxy-acetylamino)-cyclohexyl]-amide] | 1.91
13 | O=C(CO)N[C@H]1CC[C@H](NC(=O)c2c[nH]c3c(-c4ccccc4OCC4CC4)ncnc23)CC1 [Example 224, trans-4-(2-Cyclopropylmethoxy-phenyl)-5H-pyrrolo[3,2-d]pyrimidine-7-carboxylic acid [4-(2-hydroxy-acetylamino)-cyclohexyl]-amide] | 6.92
14 | C[C@H](O)C(=O)N[C@H]1CC[C@H](NC(=O)c2c[nH]c3c(-c4ccccc4OCC4CC4)ncnc23)CC1 [Example 225, trans-4-(2-Cyclopropylmethoxy-phenyl)-5H-pyrrolo[3,2-d]pyrimidine-7-carboxylic acid [4-((S)-2-hydroxy-propionylamino)-cyclohexyl]-amide] | 7.08
15 | O=C(N[C@H]1CC[C@H](NC(=O)C2(O)CC2)CC1)c1c[nH]c2c(-c3ccccc3OCC3CC3)ncnc12 [Example 226, trans-4-(2-Cyclopropylmethoxy-phenyl)-5H-pyrrolo[3,2-d]pyrimidine-7-carboxylic acid {4-[(1-hydroxy-cyclopropanecarbonyl)-amino]-cyclohexyl}-amide] | 3.39
16 | C[C@H](O)C(=O)N1CCC(NC(=O)c2c[nH]c3c(-c4ccccc4OCC4CC4)ncnc23)CC1 [Example 227, 4-(2-Cyclopropylmethoxy-phenyl)-5H-pyrrolo[3,2-d]pyrimidine-7-carboxylic acid [1-((S)-2-hydroxy-propionyl)-piperidin-4-yl]-amide] | 14.1
17 | COc1cc(-c2ncnc3c(C(=O)NC4CCN(C(=O)[C@H](C)O)CC4)c[nH]c23)c(OCC2CC2)cc1F [Example 228, 4-(2-Cyclopropylmethoxy-4-fluoro-5-methoxy-phenyl)-5H-pyrrolo[3,2-d]pyrimidine-7-carboxylic acid [1-((S)-2-hydroxy-propionyl)-piperidin-4-yl]-amide] | 0.162
18 | COc1cc(-c2ncnc3c(C(=O)N[C@@H]4CCCN(C(=O)CO)C4)c[nH]c23)c(OCC2CC2)cc1F [Example 229, 4-(2-Cyclopropylmethoxy-4-fluoro-5-methoxy-phenyl)-5H-pyrrolo[3,2-d]pyrimidine-7-carboxylic acid [(R)-1-(2-hydroxy-acetyl)piperidin-3-yl]-amide] | 0.2
19 | COc1cc(-c2ncnc3c(C(=O)N[C@@H]4CCCN(C(=O)[C@H](C)O)C4)c[nH]c23)c(OCC2CC2)cc1F [Example 230, 4-(2-Cyclopropylmethoxy-4-fluoro-5-methoxy-phenyl)-5H-pyrrolo[3,2-d]pyrimidine-7-carboxylic acid [(R)-1-((S)-2-hydroxy-propionyl)-piperidin-3-yl]-amide] | 0.24
20 | COc1cc(-c2ncnc3c(C(=O)N[C@@H]4CCN(C(=O)CO)C4)c[nH]c23)c(OCC2CC2)cc1F [Example 231, 4-(2-Cyclopropylmethoxy-4-fluoro-5-methoxy-phenyl)-5H-pyrrolo[3,2-d]pyrimidine-7-carboxylic acid [(R)-1-(2-hydroxy-acetyl)-pyrrolidin-3-yl]amide] | 0.692
21 | COc1cc(-c2ncnc3c(C(=O)N[C@@H]4CCN(C(=O)[C@H](C)O)C4)c[nH]c23)c(OCC2CC2)cc1F [Example 232, 4-(2-Cyclopropylmethoxy-4-fluoro-5-methoxy-phenyl)-5H-pyrrolo[3,2-d]pyrimidine-7-carboxylic acid [(R)-1-((S)-2-hydroxy-propionyl)-pyrrolidin-3-yl]amide] | 0.355
22 | COc1cc(OCC2CC2)c(-c2ncnc3c(C(=O)N[C@H]4CC[C@H](NC(=O)CO)CC4)c[nH]c23)cc1F [Example 233, trans-4-(2-Cyclopropylmethoxy-5-fluoro-4-methoxy-phenyl)-5H-pyrrolo[3,2-d]pyrimidine-7-carboxylic acid [4-(2-hydroxy-acetylamino)-cyclohexyl]-amide] | 0.759
23 | COc1cc(OCC2CC2)c(-c2ncnc3c(C(=O)N[C@H]4CC[C@H](NC(=O)[C@H](C)O)CC4)c[nH]c23)cc1F [Example 234, trans-4-(2-Cyclopropylmethoxy-5-fluoro-4-methoxy-phenyl)-5H-pyrrolo[3,2-d]pyrimidine-7-carboxylic acid [4-((S)-2-hydroxy-propionylamino)-cyclohexyl]-amide] | 0.977
24 | COc1cc(OCC2CC2)c(-c2ncnc3c(C(=O)N[C@H]4CC[C@H](NC(=O)C5(O)CC5)CC4)c[nH]c23)cc1F [Example 235, trans-4-(2-Cyclopropylmethoxy-5-fluoro-4-methoxy-phenyl)-5H-pyrrolo[3,2-d]pyrimidine-7-carboxylic acid {4-[(1-hydroxy-cyclopropanecarbonyl)-amino]-cyclohexyl}-amide] | 0.457
25 | COc1cc(OCC2CC2)c(-c2ncnc3c(C(=O)NC4CCN(C(=O)CO)CC4)c[nH]c23)cc1F [Example 236, 4-(2-Cyclopropylmethoxy-5-fluoro-4-methoxy-phenyl)-5H-pyrrolo[3,2-d]pyrimidine-7-carboxylic acid [1-(2-hydroxy-ethanoyl)-piperidin-4-yl]amide] | 1.66
26 | COc1cc(OCC2CC2)c(-c2ncnc3c(C(=O)NC4CCN(C(=O)[C@H](C)O)CC4)c[nH]c23)cc1F [Example 237, 4-(2-Cyclopropylmethoxy-5-fluoro-4-methoxy-phenyl)-5H-pyrrolo[3,2-d]pyrimidine-7-carboxylic acid [1-((S)-2-hydroxy-propanoyl)piperidin-4-yl]-amide] | 0.617
